From PubChem BioAssay (NCI)
“And” between values parts separate entries of the source, which are not always exact repeats. Equal entries are not always repeated.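 Growth conditions: 96-well plates. Treatment: test compound, 48 hours, 5 concentrations. Analysis: linear interpolation between bracketing concentrations; unreached endpoints set to highest concentration. Here, GI50 denotes the concentration required for 50% inhibition of growth. At the TGI there is no net growth.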

Columns and labels:
Experiment in all cases: DTP human tumour cell line panel, 48 h
SK-MEL-2 melanoma = tested on: SK-MEL-2 melanoma
OVCAR-3 ovarian = tested on: OVCAR-3 ovarian
SK-MEL-5 melanoma = tested on: SK-MEL-5 melanoma
SW-620 colon = tested on: SW-620 colon
NCI-H522 lung = tested on: NCI-H522 lung
MCF7 breast = tested on: MCF7 breast
COLO 205 colon = tested on: COLO 205 colon
SR leukemia = tested on: SR leukemia
LOX IMVI melanoma = tested on: LOX IMVI melanoma
TK-10 renal = tested on: TK-10 renal

| SMILES | GI50 (SK-MEL-2 melanoma) | TGI (SK-MEL-2 melanoma) | GI50 (OVCAR-3 ovarian) | TGI (OVCAR-3 ovarian) | GI50 (SK-MEL-5 melanoma) | TGI (SK-MEL-5 melanoma) | GI50 (SW-620 colon) | TGI (SW-620 colon) | GI50 (NCI-H522 lung) | TGI (NCI-H522 lung) | GI50 (MCF7 breast) | TGI (MCF7 breast) | GI50 (COLO 205 colon) | TGI (COLO 205 colon) | GI50 (SR leukemia) [µM] | TGI (SR leukemia) | GI50 (LOX IMVI melanoma) | TGI (LOX IMVI melanoma) | GI50 (TK-10 renal) | TGI (TK-10 renal) |
| --- | --- | --- | --- | --- | --- | --- | --- | --- | --- | --- | --- | --- | --- | --- | --- | --- | --- | --- | --- | --- |
| COc1cc2c(Nc3ccc(-c4ccc(N)cc4)cc3)ncnc2c(OC)c1OC | 4.96 µM | > 78.1 µM | 6.43 µM | > 59.3 µM | 1.94 µM | 5.3 µM | 0.733 µM | > 100 µM | 3.15 µM | > 80.9 µM | 3.54 µM | > 100 µM | 2.6 µM | 7.94 µM | 5.5 | 84.9 µM | 0.438 µM | > 100 µM | 21 µM | > 100 µM |
| CS(=O)(=O)Nc1cc(-c2ccc3ncc(C#N)c(Nc4ccc(F)c(Cl)c4)c3c2)cnc1Cl | 0.133 µM | 0.53 µM | 0.0657 µM | 0.909 µM | 0.0428 µM | 0.159 µM | 0.107 µM | 4.31 µM | 0.113 µM | 1.46 µM | 0.0946 µM | > 100 µM | 0.232 µM | 0.943 µM | 0.161 | 1.12 µM | 0.169 µM | 0.698 µM | 0.166 µM | 0.793 µM |
| CC[C@]12C=CCN3CC[C@@]4(c5ccc(OC)cc5N(C)[C@H]4[C@@](O)(C(=O)OC)[C@@H]1OC(=O)CCC(=O)O[C@H]1CC[C@H]4[C@@H]5CCC6=CC(=O)CC[C@@H]6[C@H]5CC[C@]14C)[C@@H]32 | 1.24 µM | 2.85 µM | 1.73 µM | 31.9 µM | 0.99 µM | 2.1 µM | 2.12 µM | > 50 µM | 1.8 µM | > 50 µM | 1.52 µM | > 50 µM | 0.941 µM | 1.94 µM | 1.52 | > 50 µM | 1.51 µM | 4.63 µM | 1.91 µM | > 50 µM |
| C=C(C)COc1ccc2c(c1)CCC1C2CCC2(C)C(=O)/C(=N/O)CC12 (stereo not drawn) | – | 14.1 µM | – | 14.6 µM | – | 21.1 µM | – | 9.94 µM | – | 17.4 µM | – | 10.5 µM | – | 14.4 µM | – | 4.14 µM | – | 13.9 µM | – | 5.58 µM |
| CC(C)c1cnc(-c2cc(Cl)ccc2F)cc1Nc1ccncc1C(=O)NC(CO)CO | 18 µM | 38.5 µM | 14.3 µM | 32.8 µM | 14.2 µM | 27.5 µM | 19.6 µM | 39.5 µM | 13 µM | 30.4 µM | 11.6 µM | 27.3 µM | 14.9 µM | 33.9 µM | 16.2 | 53.7 µM | 13.7 µM | 27.9 µM | 10.8 µM | 56 µM |
| Cn1c2c(c3ccccc31)CCN1C[C@@H]3CCCC[C@H]3C[C@@H]21 | 5.8 µM | > 26.7 µM | 1.95 µM | 4.74 µM | 1.42 µM | 4.07 µM | 3.43 µM | > 100 µM | 1.74 µM | 4.44 µM | 3.17 µM | > 72.8 µM | 2.04 µM | 4.68 µM | 2.96 | > 25.8 µM | 2.99 µM | > 37.3 µM | 3.01 µM | 23.2 µM |
| CCN1CCN(Cc2ccc(Nc3ncc(F)c(-c4cc(F)c5nc(C)n(C(C)C)c5c4)n3)nc2)CC1 | > 50 µM | > 50 µM | 6.34 µM | 13.5 µM | 0.392 µM | 10.3 µM | 0.192 µM | 11.9 µM | 8.92 µM | 18.1 µM | 0.0241 µM | 10.4 µM | 0.218 µM | 6.26 µM | 0.101 | 6.92 µM | 1.41 µM | 10.9 µM | 0.029 µM | 8.63 µM |
| CCOC(=O)C#Cc1cccc(C#CC(=O)OCC)c1 | – | 5.04 µM | – | 13.4 µM | – | 8.29 µM | – | 14.6 µM | – | 30.9 µM | – | 15.6 µM | – | 9.92 µM | – | 3.25 µM | – | 5.83 µM | – | 10.6 µM |
| COc1cc(-c2oc3c(OC)c(O)c(OC)c(O)c3c(=O)c2OC)cc(OC)c1OC | – | > 100 µM | – | 95.9 µM | – | > 100 µM | – | > 100 µM | – | 81.8 µM | – | > 100 µM | – | > 100 µM | – | > 100 µM | – | > 100 µM | – | > 100 µM |
| CC(=O)Oc1ccc(C2OC(c3ccc4ccccc4c3OC(C)=O)=NN2C(C)=O)c(OC(C)=O)c1 (stereo not drawn) | 0.602 µM | > 48.7 µM | 0.354 µM | 26.1 µM | 0.321 µM | > 32.3 µM | 0.455 µM | > 43.3 µM | 0.369 µM | 6.22 µM | 0.413 µM | > 38.6 µM | 0.377 µM | > 32.3 µM | 0.198 | > 34.5 µM | 0.301 µM | 33.8 µM | 0.774 µM | > 53.8 µM |
| CCc1ccc(Oc2c(-c3ccc(OCCc4cccc(C(F)(F)F)c4)cc3O)n[nH]c2C(F)(F)F)cc1 | 6.54 µM | 13.4 µM | 1.52 µM | 4.66 µM | 5.13 µM | 11 µM | 1.96 µM | 7.57 µM | 1.88 µM | 5.77 µM | 2.24 µM | 7.82 µM | 8.72 µM | 15.8 µM | 3.06 | 12 µM | 1.94 µM | 6.89 µM | 5.52 µM | 11.5 µM |
| CCCCCCCCCCCCC(O)C1CCC(C(O)CCCCC(O)CCCCCC2CC(CC(C)=O)C(=O)O2)O1 (stereo not drawn) | 1.36 µM | 2.88 µM and 15.8 µM | 1.37 µM | 2.65 µM and 7.59 µM | 0.112 µM | 2.11 µM and 5.09 µM | 3.29 µM | 25.4 µM | – | 19.9 µM | – | 3.82 µM | 1.37 µM | 2.65 µM and 11.7 µM | 2.8 | 6.93 µM and 25.5 µM | 1.06 µM | 2.24 µM and 9.49 µM | 2.4 µM | 14.1 µM |
| Cc1c(O)cccc1C(=O)N[C@@H](CSc1ccccc1)[C@H](O)CN1C[C@H]2CCCC[C@H]2C[C@H]1C(=O)NC(C)(C)C | 5.63 µM and 5.26 µM | > 100 µM and 25.4 µM | 2.62 µM and 5.24 µM | 9.46 µM and 16.2 µM | 3.12 µM and 5.11 µM | 13.5 µM and 11.7 µM | 5.66 µM and 8.79 µM | 27 µM and 29.9 µM | 3.06 µM and 2.94 µM | 11.7 µM and 13.4 µM | 6.22 µM and 3.9 µM | 24.4 µM and 15.7 µM | 2.24 µM and 4.05 µM | 6.03 µM | 2.21 | 5.48 µM | 5.27 µM and 5.39 µM | 18.8 µM and 15.8 µM | 4.26 µM and 5.89 µM | 23.6 µM and 24.5 µM |
